17 compounds from ChEMBL document CHEMBL5500324, “The potential of marine-derived piperazine alkaloids: Sources, structures and bioactivities” (Eur J Med Chem, 2024) can be followed below.

pIC50: −log10 of the molar value. In brackets after ≈: the same amount, converted by molar mass.

Common to all, as to format: functional, cell-based
The subject of test [1] is A549. In words: Cytotoxicity against human A549 cells assessed as reduction in cell viability incubated for 48 hrs by MTT assay. Conditions: A549, 48 h. In general terms: Tetrazolium assays rely on reduction of a dye to a coloured formazan, in cell work by metabolically active cells.
Test [2] concerns HCT-116. The experiment in a line: Cytotoxicity against human HCT-116 cells assessed as reduction in cell viability incubated for 48 hrs by MTT assay. The settings on record: HCT-116, 48 h.
Test [3] concerns HCT-116. In words: Cytotoxicity against human HCT-116 cells assessed as reduction in cell viability incubated for 24 hrs by MTT assay. Conditions: HCT-116, 24 h.
Another test relates to NCI-H460. In words: Cytotoxicity against human NCI-H460 cells assessed as reduction in cell growth incubated for 48 hrs by SRB assay. The settings on record: NCI-H460, 48 h. For orientation: The SRB assay estimates cell density from bound dye.
In test [4] the test system is MCF7. The experiment in a line: Cytotoxicity against human MCF7 cells assessed as reduction in cell growth incubated for 48 hrs by SRB assay. Conditions: MCF7, 48 h.
The test system of the next test is HEK293. The experiment in a line: Cytotoxicity against HEK293 cells assessed as cell growth inhibition. Conditions: Homo sapiens.
For test [5], the system named is SF-268. The experiment in a line: Cytotoxicity against human SF-268 cells assessed as reduction in cell growth incubated for 48 hrs by SRB assay. Conditions: SF-268, 48 h.
The subject of another test is RKO. The experiment in a line: Cytotoxicity against human RKO cells assessed as inhibition of cell growth measured after 48 hrs by MTT assay.
Test [6] has as its system HepG2. The experiment in a line: Cytotoxicity against human HepG2 cells assessed as reduction in cell growth incubated for 48 hrs by SRB assay. Conditions: HepG2, 48 h.
A short description of test [7]: Cytotoxicity against human AML1 cells expressing FLT3-ITD mutant assessed as cell viability.
The next test has as its system HL-60. In words: Cytotoxicity against human HL-60 cells assessed as cell growth inhibition by MTT assay.
In a further test the test system is K562. The experiment in a line: Cytotoxicity against human K562 cells assessed as cell growth inhibition by MTT assay.
The test system of another test is NCI-H1975. The experiment in a line: Cytotoxicity against human NCI-H1975 cells assessed as cell growth inhibition by MTT assay.
The test system of test [8] is HCT-116. The experiment in a line: Cytotoxicity against human HCT-116 cells assessed as reduction in cell growth by MTT assay.
Test [9] deals with A549. In words: Cytotoxicity against human A549 cells assessed as reduction in cell growth by MTT assay.
Test [10] relates to A549. In words: Antiproliferative activity against human A549 cells assessed as reduction in cell viability incubated for 72 hrs by SRB assay. Conditions: A549, 72 h.
For the next test, the system named is HT-29. The experiment in a line: Antiproliferative activity against human HT-29 cells assessed as reduction in cell viability incubated for 72 hrs by SRB assay. The settings on record: HT-29, 72 h.
The subject of another test is MDA-MB-231. The experiment in a line: Antiproliferative activity against human MDA-MB-231 cells assessed as reduction in cell viability incubated for 72 hrs by SRB assay. The settings on record: MDA-MB-231, 72 h.
The subject of test [11] is A549. The experiment in a line: Cytotoxicity against human A549 cells assessed as inhibition of cell growth incubated for 72 hrs by SRB assay. Conditions: A549, 72 h.
In test [12] the test system is MCF7. The experiment in a line: Cytotoxicity against human MCF7 cells assessed as inhibition of cell growth incubated for 72 hrs by SRB assay. The settings on record: MCF7, 72 h.
Test [13] concerns SF-268. In words: Cytotoxicity against human SF-268 cells assessed as inhibition of cell growth incubated for 72 hrs by SRB assay. Conditions: SF-268, 72 h.
The subject of test [14] is HepG2. In words: Cytotoxicity against human HepG2 cells assessed as inhibition of cell growth incubated for 72 hrs by SRB assay. Conditions: HepG2, 72 h.
For test [15], the system named is HeLa. The experiment in a line: Cytotoxicity against human HeLa cells assessed as reduction in cell viability incubated for 24 hrs by CCK-8 assay.
Test [16] concerns A549. The experiment in a line: Cytotoxicity against human A549 cells assessed as reduction in cell viability incubated for 24 hrs by CCK-8 assay. Conditions: A549, 24 h.
Test [17] has as its system HCT-116. In words: Antiproliferative activity against human HCT-116 cells assessed as reduction in cell growth.
Test [18] deals with A549. The experiment in a line: Antiproliferative activity against human A549 cells assessed as reduction in cell viability incubated for 72 hrs by CCK-8 assay. The settings on record: A549, 72 h.
The subject of the next test is AGS. The experiment in a line: Antiproliferative activity against human AGS cells assessed as reduction in cell viability measured for 48 hrs by Cell-Titer Glo assay.
Test [19] deals with MCF7. In words: Antiproliferative activity against human MCF7 cells assessed as reduction in cell viability incubated for 72 hrs by MTT assay. The settings on record: MCF7, 72 h.
The test system of another test is PC-3. The experiment in a line: Cytotoxicity against human PC-3 cells assessed as reduction in cell growth incubated for 48 hrs by CCK-8 assay. The settings on record: PC-3, 48 h.
For another test, the system named is U-937. The experiment in a line: Cytotoxicity against human U-937 cells assessed as reduction in cell growth incubated for 48 hrs by CCK-8 assay. The settings on record: U-937, 48 h.
Test [20] has as its system HCT-116. The experiment in a line: Antiproliferative activity against human HCT-116 cells assessed as reduction in cell viability incubated for 24 hrs by MTT assay. Conditions: HCT-116, 24 h.
The next test relates to QG-56. In words: Cytotoxicity against human QG-56 cells assessed as reduction in cell growth incubated for 24 hrs by MTT assay. Conditions: QG-56, 24 h.
A further test relates to DU-145. The experiment in a line: Cytotoxicity against human DU-145 cells assessed as cell growth inhibition measured after 48 hrs by MTT assay. Conditions: DU-145, 48 h.
The test system of test [21] is HeLa. In words: Cytotoxicity against human HeLa cells assessed as cell growth inhibition.
The next test deals with L1210. In words: Cytotoxicity against mouse L1210 assessed as cell growth inhibition.

One may read the IC50 as the concentration needed to halve the response being measured. As to `CC(C)/C=c1/[nH]c(=O)/c(=C/c2ccccc2)n(C)c1=O`, the 50% inhibitory concentration (IC50) with A549 [1] was 89.4 mg/L (≈ 331 µM); in the test on HCT-116 [2], > 100 mg/L.

As a reminder, the pIC50 is −log10 of the IC50, conventionally taken in molar units. Take `C=c1c(=O)n2c(cc3ccccc32)c(=O)n1C`: the negative logarithm of the IC50 (pIC50) is 4.99 in the test on HCT-116 [3]; 4.91 in the test on NCI-H460; 5.33 in the test on MCF7 [4]; 4.52 with HEK293; 5.48 with SF-268 [5]; 4.47 with RKO. In addition, the pIC50 in the test on HepG2 [6] was 5.64.

Regarding `CC1(C)C=Cc2c(ccc3c2N[C@@]24N5C(=O)[C@]6(O)CCCN6C(=O)[C@]5(O)C[C@@]32O[C@H](CO)C4(C)C)O1`, the negative logarithm of the IC50 (pIC50) in test [7] is 5.00.

`CC(C)C[C@H]1NC(=O)[C@@H](Cc2ccc3c(c2)OCO3)NC1=O`: the IC50 worked out at 28.4 mg/L (≈ 93.3 µM) with A549 [1] and 45.4 mg/L (≈ 149 µM) with HCT-116 [2].

On to `CN1C(=O)[C@]23SSS[C@]1(CO)C(=O)N2[C@H]1Nc2ccccc2C1(C12c4ccccc4N[C@H]1N1C(=O)[C@@]4(CO)SSSS[C@]1(C(=O)N4C)[C@H]2O)[C@@H]3O` (stereo not given in full), for which the pIC50 was 5.72 in the test on HL-60; 5.72 with K562; 5.44 in the test on NCI-H1975; 5.68 in the test on HCT-116 [8]; 5.72 in the test with A549 [9].

`CN1C[C@@H](c2c[nH]c3cc(Br)ccc23)NC[C@@H]1c1c[nH]c2ccccc12`: the values for the pIC50 with A549 [10], with HT-29 and with MDA-MB-231 were 5.57, 5.48 and 5.33, respectively.

`CC(C)=CCc1[nH]cnc1/C=C1\NC(=O)CNC1=O`: in test [7], the pIC50 was 6.66.

`CN1C[C@@H](c2c[nH]c3cc(Br)ccc23)N(C)C[C@@H]1c1c[nH]c2cc(Br)ccc12`: the pIC50 in the test on A549 [10] was 4.69; in the test on HT-29, 4.71; with MDA-MB-231 it was 4.55.

For `CN1C(=O)[C@H]2CSC3=C(C(=O)c4ccccc4C3=O)N2C[C@@H]1CO`, the pIC50 in the test with A549 [11] is 4.46; in the test on MCF7 [12], 4.59; with SF-268 [13] it was 4.77; with HepG2 [14], 4.51.

Consider `CC[C@H](C)[C@]1(OC)NC(=O)[C@@H](Cc2ccccc2)N2C(=O)C3=C(NC21)OC=CC=C3` (stereo not given in full), for which the pIC50 is 3.72 with HeLa [15] and 4.00 in the test with A549 [16].

In the case of `CC(=O)O[C@H]1C=CC=C2C[C@@]34SS[C@]5(CC6=COC=C[C@H](OC(C)=O)[C@H]6N5C3=O)C(=O)N4[C@@H]21`, the pIC50 in the test on HCT-116 [17] was 4.86; in the test on A549 [18] it was 4.92; in the test with AGS, 4.92; with MCF7 [19], 5.00.

Turning to `COc1ccc2c3c(n(CC=C(C)C)c2c1)[C@H](C=C(C)C)N1C(=O)[C@@H]2CCCN2C(=O)[C@@]1(O)[C@H]3OC`, the figures for the pIC50 in the test on PC-3 and in the test with U-937 were 4.01 and 4.60, respectively.

In the case of `COC1=C(C)C(=O)C2=C(C1=O)[C@H](CO)N1[C@@H](C#N)[C@@H]3[C@@H](O)c4c(O)c(C)c(OC)c(O)c4[C@H]([C@@H]1C2)N3C`, the pIC50 in the test with HCT-116 [20] is 6.34; with QG-56 it was 6.21; in the test on DU-145, 6.35.

`CC(=O)O[C@H]1C=COC=C2C[C@@]34SS[C@]5(CC6=COC=C[C@H](OC(C)=O)[C@H]6N5C3=O)C(=O)N4[C@@H]21`: the pIC50 with HCT-116 [17] was 4.68; with A549 [18], 4.64; in the test on AGS it was 4.49; in the test with MCF7 [19], 4.44.

As for `CN1C(=O)[C@]23SSS[C@]1(C)C(=O)N2[C@@H]1Nc2ccccc2C1(C12c4ccccc4N[C@@H]1N1C(=O)[C@@]4(CO)SSS[C@]1(C(=O)N4C)[C@H]2O)[C@@H]3O` (stereo not given in full), the negative-log IC50 (pIC50) in the test on HL-60 is 5.72; with K562, 6.40; in the test with NCI-H1975, 6.70; with HCT-116 [8] it was 6.40; in the test on A549 [9] it was 6.40.

As to `CN1C(=O)[C@]23SSS[C@]1(CO)C(=O)N2[C@H]1Nc2ccccc2C1(C12c4ccccc4N[C@H]1N1C(=O)[C@@]4(CO)SSS[C@]1(C(=O)N4C)[C@H]2O)[C@@H]3O` (stereo not given in full), the negative logarithm of the IC50 (pIC50) was 5.82 with HL-60; 6.00 in the test with K562; 6.10 with NCI-H1975; 6.52 in the test on HCT-116 [8]; 6.15 with A549 [9].

As for `CC1(C)C=Cc2c(ccc3c2NC(=O)[C@@]32C[C@@]34NC(=O)[C@]5(CCCN5C3=O)C[C@H]4C2(C)C)O1` [NOTOAMIDE B], the IC50 is 52 mg/L (≈ 116 µM) in the test on HeLa [21] and 36 mg/L (≈ 80.4 µM) in the test with L1210.
